The source of these data is US20110059526A1, “REPROGRAMMING A CELL BY INDUCING A PLURIPOTENT GENE THROUGH USE OF AN HDAC MODULATOR” (NUPOTENTIAL, INC., priority 2008, published 2011).

Structures can show the parent of a compound that is named as a salt. Where only a bound is given, the exact number is not on record here.

For data set [1], the system named is Oct-4 gene expression, BJF cells. Description: Small molecules, Oct-4 gene expression by qRT-PCR (Table III), BJF. It is filed as cell-based, human. The protocol:
(§1) Cell culture. Human dermal fibroblasts were purchased from Cell Applications (San Diego, Calif.), and were maintained at 37° C. in 95% humidity and 5% CO2 in Fibroblast growth medium (Cell Applications, San Diego, Calif.).
(§2) Quantitative RT-PCR. Expression of Oct-4 was determined by real-time RT-PCR. Briefly, total RNA was prepared from cultures using Trizol Reagent (Life Technologies, Gaithersburg, Md.) and RNeasy Mini kit (Qiagen; Valencia, Calif.) with DNase I digestion according to manufacturer's protocol. Total RNA (1 μg) from each sample was subjected to oligo(dT)-primed reverse transcription (Invitrogen; Carlsbad, Calif.). Real-time PCR reactions will be performed with PCR master mix on a 7300 real-time PCR system (Applied Biosystems; Foster City, Calif.). For each sample, 1 μl of diluted cDNA (1:10) will be added as template in PCR reactions. The expression level of Cot-4 was normalized to glyceraldehyde 3-phosphate-dehydrogenase (GAPD).
Table III provides the effects of small molecule inhibitors on Oct-4 gene expression in human somatic cells. mRNA levels were determined by real time qRT-PCR and normalized with GAPDH. The abbreviations are as follows: HDACi (histone deacetylase inhibitor DNMTi (DNA methyltransferase inhibitor); SIRTi (sirtuin, Class III HDAC inhibitor); LdeMi (lysine demethylase inhibitor); SIRT1a (sirtuin 1 activator); TSAi (trichostatin A inhibitor); HDMi/LSD1i (histone demethylase inhibitor/Lysine demethylase 1 inhibitor).
In general terms: In qPCR the cycle at which signal appears reflects the starting amount.

Data set [2] relates to Oct-4 gene expression, adult human dermal fibroblasts (HDFa). Description: Small molecules, Oct-4 gene expression by qRT-PCR (Table III), HDFa. It is filed as cell-based. The protocol:
as §1, §2
The abbreviations are as follows: HDACi (histone deacetylase inhibitor DNMTi (DNA methyltransferase inhibitor); SIRTi (sirtuin, Class III HDAC inhibitor); LdeMi (lysine demethylase inhibitor); SIRT1a (sirtuin 1 activator); TSAi (trichostatin A inhibitor); HDMi/LSD1i (histone demethylase inhibitor/Lysine demethylase 1 inhibitor).

Data set [3] deals with Oct-4 gene expression, HLFa. Description: Small molecules, Oct-4 gene expression by qRT-PCR (Table III), HLFa. The following applies: dose 500 uM, Rx Time 5. It is filed as cell-based, human.
The subject of data set [4] is Oct-4 protein, fetal human dermal fibroblasts (HDFf). Description: Immunohistochemistry of Oct-4 protein in shRNA-infected cells. The following applies: versus uninfected control. The data set is classed as cell-based. The protocol:
Cell culture. Fetal human dermal fibroblasts were purchased from Cell Applications (San Diego, Calif.), and were maintained at 37° C. in 95% humidity and 5% CO2 in Fibroblast growth medium (Cell Applications, San Diego, Calif.).
Lentiviral Infection. Fetal human dermal fibroblasts were infected with one of the following compositions: (1) shRNA lentivirus directed to DNMT1; (2) shRNA lentivirus directed toward HDAC7; (3) shRNA lentivirus directed toward DNMT1 and HDAC7; and (4) shRNA lentivirus directed toward HDAC7a and HDAC11. The shRNA construct was obtained from Dharmacon. The shRNA construct directed toward HDAC7a had the following sequence:
(§3) The human dermal fibroblasts were infected with the shRNA following the manufacturer's instructions. HDF were cultured with an without puromycin selection and hES culture conditions (mTeSR Medium, Stem Cell Technology, Vancouver, BC, Canada) on matrigel (BD Biosciences, San Jose Calif.).
Immunohistochemistry. For immunohistochemistry, target shRNA-infected and control cells were grown on chambered slides (LabTek, Napersville, Ill.). Cells were then be fixed with 4% paraformaldehyde, and incubated with a specific antibody directed against pluripotency marker Oct3/4 (Abeam, Cambridge, Mass.) following the manufacturer's protocol. Staining of Oct3/4 was visualized as a red color. […]

Data set [5] relates to Sox-2 protein, fetal human dermal fibroblasts (HDFf). Description: Immunohistochemistry of Sox-2 protein in shRNA-infected cells. It is filed as cell-based. As to conditions: versus uninfected control.
Data set [6] has as its system HDAC genes and SIRT genes mRNA, human dermal fibroblasts. Description: HDAC7 shRNA lentiviral infection, RT-PCR of HDAC and SIRT genes (FIG. 7). The data set is classed as cell-based.
From the text: (§4) Human dermal fibroblasts (HDFa, HDFn, and HDFf) were infected with shRNA lentivirus to interfere with HDAC7. In a separate set of experiments, human dermal fibroblasts (HDFa, HDFn, and HDFf) were infected with shRNA lentivirus to interfere with HDAC11. RNA was isolated from HDFs (including puromycin selection) and applied to RT-PCR to analyze expression of target genes, e.g., Oct-4, Nanog, Sox2, various HDACs and various SIRT genes. The shRNA construct included puromycin (antibiotic) resistance as a way to select cells that have been successfully transfected with the shRNA. After transfection, puromycin was added to the culture and cells that were not resistant (therefore not transfected) died, thereby leaving only transfected cells remaining in the culture.
as §1
(§5) Lentiviral Infection. Human dermal fibroblasts were infected with a shRNA construct. The shRNA construct was obtained from Dharmacon. The shRNA construct directed toward directed toward HDAC7a had the following sequence:
The human dermal fibroblasts were infected with the shRNA following the manufacturer's instructions. […]
Quantitative RT-PCR. Expression of Oct-3/4 and Nanog was determined by real-time RT-PCR. […]

The test system of data set [7] is Oct-4, Nanog, Sox-2 mRNA, human dermal fibroblasts (HDFa, HDFn, HDFf). Description: HDAC7 or HDAC11 shRNA lentiviral infection, RT-PCR of Oct-4, Nanog, Sox-2 mRNA. The data set is classed as cell-based.
From the text: as §4, §1, §5
The human dermal fibroblasts were infected with the shRNA following the manufacturer's instructions. HDF were cultured with an without puromycin selection and hES culture conditions (mTeSR Medium, Stem Cell Technology, Vancouver, BC, Canada) on matrigel (BD Biosciences, San Jose Calif.). In these sets of experiments, cells were infected with a shRNA construct directed toward either HDAC7, or HDAC11.
as §2, with “Oct-3/4 and Nanog” for “Oct-4”, “DNase” for “DNase I”, “Oct-3/4 and Nanog” for “Cot-4”

In data set [8] the test system is HDAC7a and HDAC11 expression, human dermal fibroblasts (HDFa, HDFn, HDFf). Description: HDAC7a shRNA effect on expression of HDAC7a and HDAC11, RT-PCR. It is filed as cell-based. The protocol:
as §1
Lentiviral Infection. Human dermal fibroblasts were infected with a shRNA construct. The shRNA construct was obtained from Dharmacon. The shRNA construct directed toward HDAC7a had the following sequence:
as §3
as §2, with “HDAC7a and HDAC11” for “Oct-4”, “The expression level of Cot-4 was normalized to glyceraldehyde 3-phosphate-dehydrogenase (GAPD).” left out

With `NC1CC1c1ccccc1` (centres unmarked) [2-PCPA], the “Oct4 FC” value in data set [1] (dose 1 mM, Rx Time 8) was under 2.
With `O=C(O)CCCCC1CCSS1` (stereo not drawn) [ALA, Alpha-lipoic acid], the “Oct4 FC” value in data set [2] (dose 50 uM, Rx Time 4) was found to be 3.5.
Take `O=C(O)CCCC[C@@H]1SC[C@@H]2NC(=O)N[C@@H]21` [Biotin]: the “Oct4 FC” value in data set [2] (dose 500 uM, Rx Time 4) is under 2.
Turning to `Nc1ccccc1NC(=O)CCCCCCC(=O)Nc1ccccc1` [CAY 10433], the “Oct4 FC” value in data set [2] (dose 50 uM, Rx Time 4) is reported as under 2.
For `O=C(O[C@@H]1Cc2c(O)cc(O)cc2O[C@@H]1c1cc(O)c(O)c(O)c1)c1cc(O)c(O)c(O)c1` [EGCG], the “Oct4 FC” value in data set [1] (dose 1 uM, Rx Time 4) is under 2.
Regarding `NC(=O)C1CCCc2c1[nH]c1ccc(Cl)cc21` (centres unmarked) [EX-527], the “Oct4 FC” value in data set [2] (dose 50 uM, Rx Time 4) is recorded as 2.
On to `NNc1nncc2ccccc12` [Hydralazine HCL], for which the “Oct4 FC” value in data set [2] (dose 500 uM, Rx Time 2) was under 2.
For `O=C(c1ccc(Cl)cc1Cl)n1nnc2ccccc21` [ITSA], the “Oct4 FC” value in data set [2] (dose .05 mM, Rx Time 4) is under 2.
For `NC(=O)c1cccnc1` [Nicotinamide], in data set [2] (dose .028 mM, Rx Time 4), the “Oct4 FC” value was found to be 2.3.
`CCN(CC)CCOC(=O)c1ccc(N)cc1` [Procaine HCL]: the “Oct4 FC” value in data set [2] (dose 500 uM, Rx Time 8) is reported as under 2.
Regarding `O=C(NCCSSCCNC(=O)/C(Cc1ccc(O)c(Br)c1)=N/O)/C(Cc1ccc(O)c(Br)c1)=N/O` [Psammaplin-A], the “Oct4 FC” value in data set [1] (dose 1.5 mM, Rx Time 7) was determined as 2.2.
With `O=C(O)C(Cc1c[nH]c2ccccc12)N1C(=O)c2ccccc2C1=O` (centres unmarked) [RG108], the “Oct4 FC” value in data set [3] was under 2.
Consider `Cn1cc(C2=C(c3cn(CCCSC(=N)N)c4ccccc34)C(=O)NC2=O)c2ccccc21` [RO-31-8220], for which the “Oct4 FC” value in data set [1] (dose 2.5 mM, Rx Time 4) was under 2.
On to `Oc1ccc(C=Cc2cc(O)cc(O)c2)cc1` [Resveratrol], for which the “Oct4 FC” value in data set [1] (dose .5 mM, Rx Time 4) is recorded as under 2.
Take `COCCCn1c(N)c(C(=O)NC2CCCC2)c2nc3ccccc3nc21` [SIRT1 Activator 3]: the “Oct4 FC” value in data set [2] (dose 500 uM, Rx Time 4) is given as 2.
As for `CC(NC(=O)c1ccccc1/N=C/c1c(O)ccc2ccccc12)c1ccccc1` (centres unmarked) [Sirtinol], the “Oct4 FC” value in data set [1] (dose .05 mM, Rx Time 7) is reported as under 2.
`O=C1CCc2c(ccc3ccccc23)O1` [Splitomycin]: the “Oct4 FC” value in data set [2] (dose .5 mM, Rx Time 4) stood at 2.
`N[C@@H]1C[C@H]1c1ccccc1` [Tranylcypromine]: the “Oct4 FC” value in data set [2] (dose 2.5 mM, Rx Time 4) worked out at 2.7.
On to `O=c1ncccn1[C@@H]1O[C@H](CO)[C@@H](O)[C@H]1O` [Zebularine], for which the “Oct4 FC” value in data set [1] (dose .05 mM, Rx Time 6) is under 2.
Turning to “DNMT1 shRNA: shRNA construct directed toward DNMT1, SEQ ID NO. 4: GTCTACCAGATCTTCGATA (listed as Homo Sapiens)”, the Oct-4 protein expression entry in data set [4] is on record as “clearly increased”. In data set [5], the Sox-2 protein expression result is on record as “only a modest amount”.
On to Depudecin, for which the “Oct4 FC” value in data set [2] (dose 50 uM, Rx Time 4) is given as under 2.
In the case of “HDAC7 shRNA: shRNA lentiviral construct from Dharmacon directed toward HDAC7a, SEQ ID NO. 1: GCTTTCAGGATAGTCGTGA (shRNA lentiviral construct)”, the “level of HDAC7 mRNA reduced” value in data set [6] (around three days after lentiviral infection) was “about 50 % of basal level”. In addition, in data set [6] (three days after HDAC7 shRNA infection), the “expression of HDAC 9, HDAC5 and HDAC11 mRNA” value is reported as “inducted”. Also, the “level of mRNA for the gene Oct-4” value in data set [7] (HDFa and HDFn, presence and absence of puromycin, compared to Nanog) is “more modest increase”. In addition, in data set [7] (HDFa and HDFn, with and without puromycin selection), the “expression of Nanog increased over time” value was “at least six-fold”. Besides, the “level of mRNA for the gene Nanog” value in data set [7] (HDFa, HDFn and HDFf, presence and absence of puromycin) is given as “increased”; in data set [7] (HDFf, compared with HDFa and HDFn), “not as robustly”. For the same compound, the “level of mRNA for the Sox-2 gene” value in data set [7] (fetal human dermal fibroblasts (HDFf)) is “No induction”. For the same compound, the Oct-4 protein expression entry in data set [4] is given as “minimal detection”. Further, the “expression of HDAC7a” value in data set [8] is on record as “decreased”. Moreover, the “expression of HDAC11” value in data set [8] (presence and absence of puromycin) is “increased”. In addition, in data set [5], the Sox-2 protein expression result was “minimal protein expression”.
Regarding Na Phenylbutyrate, in data set [2] (dose 2.5 mM, Rx Time 4), the “Oct4 FC” value is reported as 2.5.
As for Valproxam, the “Oct4 FC” value in data set [2] (dose .5 mM, Rx Time 4) is on record as under 2.
